Values belong to the compound of their own block, whether it stands above or below them. Residues, ends and D or L forms follow the SMILES beside them. *: point of attachment. Cbz = O=C(OCc1ccccc1)*
How the values were obtained:
[1] = test system: primary lung cancer cells; assay: Collagen gel droplet embedded 3D-culture (CD-DST) of primary lung cancer cells; type: cell-based; conditions: Homo sapiens; 15 primary lung cancer samples, 4 μM for 24 h, then cultured another 5 days, neutral red; read-out: viable cell percentage
Protocol: Collagen gel droplet embedded 3D‐culture system (CD‐DST) system was performed using a Tumor chemo‐sensitivity assay kit provided by Guangzhou Darui Biotechnology Co., Ltd (Guangzhou, China) (Hou et al., 2017). Briefly, 0.1–0.5 g freshly dissected human lung cancer tissues were digested by trypsin and incubated in collagen gel‐coated flasks. Then, cells were collected and incubated in a collagen gel droplet at the density of 4000 cells per droplet (the volume of each droplet was 30 μL). […] Cells were visualized by neutral red stain and observed using cell analysis system DR6690 (Guangzhou Darui Biotechnology Co., Ltd). Survival rates were calculated as (absorbance 540 nm of treatment group/absorbance 540 nm of control group) × 100%.
Table S2. Cell viability of 15 primary lung cancer cells after treatment with 4 μM of compounds for 24 h, and cultured for another 120 h before neutral red stain and fixation. Cell viability was calculated observed using specific cell analysis system DR6690 (Guangzhou Darui Biotechnology Co., Ltd, Guangzhou, China). Survival rates were calculated as (O.D. 540nm treatment group/O.D. 540nm control group) × 100%.

A549 cells = assay: CCK-8 cell viability assay, A549; type: cell-based; conditions: for IC50: Homo sapiens, A549, CCK-8, 48 h, EGFR wild-type
Protocol: Cell proliferation was measured by Cell Counting Kit‐8 (CCK‐8) assay (Bestbio, Shanghai, China). Cells were cultured in 96‐well plates at a concentration of 7 × 10^3/well for 24 h. If necessary, cells were pretreated with 25 or 50 μM of Z‐VAD‐FMK for 4 h. […] Supernatant was totally removed and 100 μL of CCK‐8 solution was added to each well and cultured for another 2 h at 37 °C. Cell viability was quantified using a SpectraMax M2e (Molecular Devices, San Jose, CA, USA) at 450 nm. Cell viability was calculated for each well as (absorbance 450 nm of treated cells/absorbance 450 nm of control cells) × 100%. Assays were performed on three independent experiments.

H1975 cells = assay: CCK-8 cell viability assay, H1975; type: cell-based; conditions: Homo sapiens, NCI-H1975; CCK-8, 48 h, EGFR L858R/T790M
Protocol: (§1) Cell proliferation was measured by Cell Counting Kit‐8 (CCK‐8) assay (Bestbio, Shanghai, China). Cells were cultured in 96‐well plates at a concentration of 7 × 10^3/well for 24 h. If necessary, cells were pretreated with 25 or 50 μM of Z‐VAD‐FMK for 4 h. Then cells were treated with indicated concentrations of compounds for 48 h. Supernatant was totally removed and 100 μL of CCK‐8 solution was added to each well and cultured for another 2 h at 37 °C. Cell viability was quantified using a SpectraMax M2e (Molecular Devices, San Jose, CA, USA) at 450 nm. Cell viability was calculated for each well as (absorbance 450 nm of treated cells/absorbance 450 nm of control cells) × 100%. Assays were performed on three independent experiments.

Mcl-1 = assay: Western blot of Mcl-1 protein level in A549 cells; type: cell-based; conditions: 8 h
Protocol: After treated with different concentrations of compounds, total proteins were extracted using RIPA lysing buffer. […] The membranes were blocked with 5% non‐fat milk at room temperature for 1 h, and then incubated with primary antibodies overnight at 4 °C. After washing with Tris buffered saline with Tween 20 (TBST), membranes were incubated with secondary antibodies at room temperature for another 1 h. The protein bands were visualized by adding ECL system WBKLS0050 (EMD Millipore, Billerica, MA, USA) and analyzed using Bio‐Rad Laboratories Quantity One software (Bio‐Rad).

H460 cells = assay: CCK-8 cell viability assay, H460; type: cell-based; conditions: Homo sapiens, NCI-H460; CCK-8, 48 h, EGFR wild-type
Protocol: as §1

EIF2S2 = assay: SILAC phosphoproteomics in A549 cells, EIF2S2; type: cell-based; conditions: 8 μM, 8 h, treated versus untreated
Protocol: (§2) A549 cells were cultured in F12 and supplemented with either (U‐12C6)‐L‐lysine (light) or (U‐13C6)‐L‐lysine (heavy) for at least eight generations. The heavy labeling efficiency was measured by mass spectrometer analysis. Cells were continuously maintained in SILAC medium until they reached the desired confluence. Cells were treated with 8 μM of Ibr‐7 for 8 h, and then harvested by trypsinization. The enriched fractions were analyzed by mass spectrometry.

PI3Ka = PI3Ka (Homo sapiens, UniProt P42336); assay: Kinase inhibition ELISA, PI3Ka; type: biochemical; conditions: ELISA kinase assay
Chain of PI3Ka (P42336 whole entry): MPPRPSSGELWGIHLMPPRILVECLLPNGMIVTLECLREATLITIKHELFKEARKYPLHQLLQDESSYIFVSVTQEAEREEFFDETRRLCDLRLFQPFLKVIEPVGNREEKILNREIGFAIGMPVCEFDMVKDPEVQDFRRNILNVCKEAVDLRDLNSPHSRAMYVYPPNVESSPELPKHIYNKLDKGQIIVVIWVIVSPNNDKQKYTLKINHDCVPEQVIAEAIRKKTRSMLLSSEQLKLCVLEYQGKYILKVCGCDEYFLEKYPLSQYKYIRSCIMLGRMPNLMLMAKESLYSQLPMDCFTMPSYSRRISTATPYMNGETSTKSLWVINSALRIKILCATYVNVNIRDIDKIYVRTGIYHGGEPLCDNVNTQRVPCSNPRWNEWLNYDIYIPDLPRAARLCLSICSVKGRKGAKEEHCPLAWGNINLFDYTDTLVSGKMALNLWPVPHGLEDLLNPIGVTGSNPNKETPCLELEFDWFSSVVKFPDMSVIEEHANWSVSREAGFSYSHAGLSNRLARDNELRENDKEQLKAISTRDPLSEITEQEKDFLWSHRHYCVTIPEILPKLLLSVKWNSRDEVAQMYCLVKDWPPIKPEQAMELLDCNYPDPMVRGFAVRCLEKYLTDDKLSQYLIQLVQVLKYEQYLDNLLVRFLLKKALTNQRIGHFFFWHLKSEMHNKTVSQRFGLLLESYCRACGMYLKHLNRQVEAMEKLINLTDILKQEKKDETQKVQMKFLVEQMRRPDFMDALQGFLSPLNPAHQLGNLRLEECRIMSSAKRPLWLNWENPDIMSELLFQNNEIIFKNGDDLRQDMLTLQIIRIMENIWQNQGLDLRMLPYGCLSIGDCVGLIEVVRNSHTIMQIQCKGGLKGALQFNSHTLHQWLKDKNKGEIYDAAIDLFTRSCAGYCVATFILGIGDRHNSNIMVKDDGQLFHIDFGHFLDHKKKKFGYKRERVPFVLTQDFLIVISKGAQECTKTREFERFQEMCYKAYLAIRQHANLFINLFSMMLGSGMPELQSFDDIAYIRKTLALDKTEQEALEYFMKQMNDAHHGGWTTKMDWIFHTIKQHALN
Chain of PI3Ka (P27986 whole entry partner): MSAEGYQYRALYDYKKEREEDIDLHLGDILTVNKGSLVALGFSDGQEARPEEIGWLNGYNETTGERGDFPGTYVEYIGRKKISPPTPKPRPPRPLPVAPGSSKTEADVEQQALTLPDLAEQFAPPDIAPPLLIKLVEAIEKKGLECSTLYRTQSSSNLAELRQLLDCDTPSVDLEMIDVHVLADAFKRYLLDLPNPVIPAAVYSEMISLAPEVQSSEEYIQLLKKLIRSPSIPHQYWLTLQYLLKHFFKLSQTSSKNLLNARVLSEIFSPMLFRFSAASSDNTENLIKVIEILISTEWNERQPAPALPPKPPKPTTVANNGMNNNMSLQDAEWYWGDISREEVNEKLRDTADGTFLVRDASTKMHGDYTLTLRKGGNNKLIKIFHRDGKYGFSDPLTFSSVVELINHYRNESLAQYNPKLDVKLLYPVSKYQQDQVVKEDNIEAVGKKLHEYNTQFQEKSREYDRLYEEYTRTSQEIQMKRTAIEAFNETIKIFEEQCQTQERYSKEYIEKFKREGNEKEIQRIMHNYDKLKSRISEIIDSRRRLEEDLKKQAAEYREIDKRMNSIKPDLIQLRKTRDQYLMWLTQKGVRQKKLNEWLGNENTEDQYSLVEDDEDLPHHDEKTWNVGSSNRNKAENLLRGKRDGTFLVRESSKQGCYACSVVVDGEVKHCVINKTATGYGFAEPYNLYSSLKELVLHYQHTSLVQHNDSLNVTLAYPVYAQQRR
Description: (§3) ELISA was used to determine the inhibitory effect of Ibr‐7 on five kinases after molecular modification. […] Since p‐S6 is the downstream functional factor that controls the translational process, we attempted to determine the role of p‐S6 in the Ibr‐7 antitumor effect.

EGFR [2] = biological target: T1, EGFR (Homo sapiens, UniProt P00533); assay: SILAC phosphoproteomics in A549 cells, EGFR; type: cell-based; conditions: 8 μM, 8 h, treated versus untreated
T1 sequence (P00533 25-1210): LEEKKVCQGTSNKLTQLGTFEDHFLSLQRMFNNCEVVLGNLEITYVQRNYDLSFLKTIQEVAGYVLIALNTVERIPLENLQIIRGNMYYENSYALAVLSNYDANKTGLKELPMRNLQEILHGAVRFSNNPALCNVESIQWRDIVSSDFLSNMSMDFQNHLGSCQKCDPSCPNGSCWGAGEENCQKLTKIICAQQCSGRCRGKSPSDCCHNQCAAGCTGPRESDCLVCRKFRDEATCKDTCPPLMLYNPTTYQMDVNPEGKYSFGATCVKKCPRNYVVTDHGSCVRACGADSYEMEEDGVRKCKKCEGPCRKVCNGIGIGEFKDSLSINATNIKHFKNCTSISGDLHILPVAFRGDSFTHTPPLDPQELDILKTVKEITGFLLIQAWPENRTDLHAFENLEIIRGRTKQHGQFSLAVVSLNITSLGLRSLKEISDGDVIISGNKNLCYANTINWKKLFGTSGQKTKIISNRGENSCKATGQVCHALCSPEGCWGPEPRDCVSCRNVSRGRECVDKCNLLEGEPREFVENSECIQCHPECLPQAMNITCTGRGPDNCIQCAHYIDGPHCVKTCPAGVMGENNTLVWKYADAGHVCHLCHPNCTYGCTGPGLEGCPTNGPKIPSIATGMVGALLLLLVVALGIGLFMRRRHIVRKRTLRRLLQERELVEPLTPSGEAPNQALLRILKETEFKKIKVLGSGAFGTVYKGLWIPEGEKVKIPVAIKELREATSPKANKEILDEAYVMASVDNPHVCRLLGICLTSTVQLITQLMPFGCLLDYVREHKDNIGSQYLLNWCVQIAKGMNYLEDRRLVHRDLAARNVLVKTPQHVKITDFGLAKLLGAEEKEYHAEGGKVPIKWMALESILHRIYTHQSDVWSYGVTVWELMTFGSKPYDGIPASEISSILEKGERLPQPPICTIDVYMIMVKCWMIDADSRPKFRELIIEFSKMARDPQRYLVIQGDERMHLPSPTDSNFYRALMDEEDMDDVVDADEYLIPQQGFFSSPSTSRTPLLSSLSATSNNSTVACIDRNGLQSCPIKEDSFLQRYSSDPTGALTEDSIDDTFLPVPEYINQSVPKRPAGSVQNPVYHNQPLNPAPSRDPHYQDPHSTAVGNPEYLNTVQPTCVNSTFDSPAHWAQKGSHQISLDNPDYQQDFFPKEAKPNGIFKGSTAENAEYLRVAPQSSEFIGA
Protocol: as §2

p70S6K = p70S6K (Homo sapiens, UniProt P23443); assay: Kinase inhibition ELISA, p70S6K; type: biochemical; conditions: ELISA kinase assay
Chain of p70S6K (P23443 whole entry): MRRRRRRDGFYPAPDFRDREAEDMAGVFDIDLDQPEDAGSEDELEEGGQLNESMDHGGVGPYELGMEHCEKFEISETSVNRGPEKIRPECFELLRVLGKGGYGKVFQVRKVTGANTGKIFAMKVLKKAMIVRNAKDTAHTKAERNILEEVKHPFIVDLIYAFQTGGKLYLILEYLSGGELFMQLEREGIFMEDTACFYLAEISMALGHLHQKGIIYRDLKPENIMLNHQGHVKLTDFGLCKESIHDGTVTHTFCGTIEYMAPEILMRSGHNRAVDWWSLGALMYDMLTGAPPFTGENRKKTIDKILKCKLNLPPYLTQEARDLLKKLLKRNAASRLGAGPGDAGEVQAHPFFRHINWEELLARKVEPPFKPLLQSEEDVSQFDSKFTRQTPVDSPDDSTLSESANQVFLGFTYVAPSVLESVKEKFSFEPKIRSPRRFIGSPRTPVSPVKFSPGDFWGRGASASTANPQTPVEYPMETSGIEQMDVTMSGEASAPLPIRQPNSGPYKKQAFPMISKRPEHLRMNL
Description: as §3

AKT1 = AKT1 (Homo sapiens, UniProt P31749); assay: Kinase inhibition ELISA, AKT1; type: biochemical; conditions: ELISA kinase assay
Chain of AKT1 (P31749 whole entry): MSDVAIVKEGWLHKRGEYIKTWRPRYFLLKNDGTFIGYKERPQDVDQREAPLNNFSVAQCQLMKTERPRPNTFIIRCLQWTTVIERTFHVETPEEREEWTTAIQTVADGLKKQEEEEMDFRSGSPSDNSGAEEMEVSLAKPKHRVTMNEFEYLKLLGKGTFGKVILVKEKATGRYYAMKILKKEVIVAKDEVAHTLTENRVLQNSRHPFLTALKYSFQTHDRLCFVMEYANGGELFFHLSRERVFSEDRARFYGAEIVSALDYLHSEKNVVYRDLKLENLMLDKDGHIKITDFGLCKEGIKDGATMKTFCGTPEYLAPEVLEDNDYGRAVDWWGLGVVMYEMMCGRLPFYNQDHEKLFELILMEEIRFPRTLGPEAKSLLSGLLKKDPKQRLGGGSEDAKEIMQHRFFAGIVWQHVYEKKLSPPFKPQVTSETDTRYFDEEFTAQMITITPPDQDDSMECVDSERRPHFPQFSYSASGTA
Description: as §3

mTOR [3] = biological target: mTOR (Homo sapiens, UniProt P42345); assay: Kinase inhibition ELISA, mTOR; type: biochemical; conditions: ELISA kinase assay
Description: as §3

PC-9 cells = assay: CCK-8 cell viability assay, PC-9; type: cell-based; conditions: Homo sapiens, CCK-8, 48 h, EGFR exon 19 deletion
Protocol: as §1

RPS6 = assay: SILAC phosphoproteomics in A549 cells, RPS6; type: cell-based; conditions: 8 μM, 8 h, treated versus untreated
Protocol: as §2

EGFR [4] = biological target: T1, EGFR; assay: Kinase inhibition ELISA, EGFR; type: biochemical; conditions: ELISA kinase assay
Description: as §3

mTOR [5] = assay: SILAC phosphoproteomics in A549 cells, mTOR; type: cell-based; conditions: 8 μM, 8 h, treated versus untreated
Protocol: as §2

LARP1 = assay: SILAC phosphoproteomics in A549 cells, LARP1; type: cell-based; conditions: 8 μM, 8 h, treated versus untreated
Protocol: as §2

[6] = Pharmacokinetics in SD rat; type: in vivo; conditions: po, intragastric 30 mg/kg
Protocol: Table S3. PK parameters of Ibr-7 in SD rat (i.g 30 mg/kg). Ibr-7 was orally administrated at the dose of 30 mg/kg. At each time point, 0.1 ml of rat blood was gained through retro-orbital plexus and then centrifuged at 5,000 rpm, 4 ℃ for 10 min. 10 μl of sample was mixed with 100 μl of internal reference (Buspirone 50 ng/ml, terfenadine 50 ng/ml), and vortexed for 60 s. After centrifuging at 12,000 rpm for 3 min, the supernatant was collected and transferred to an equal volume of distilled water into the 96-well plate. The final injection volume was 10 μl. Samples were analyzed by LC-MS/MS (API 4000QTRAP) and data was processed by Analyst v 1.5.1.

RPS6KA1 = assay: SILAC phosphoproteomics in A549 cells, RPS6KA1; type: cell-based; conditions: 8 μM, 8 h, treated versus untreated
Protocol: as §2

A549 xenograft = assay: A549 tumor xenograft assay; type: in vivo; conditions: A549 xenograft nude mice, 60 mg·kg^−1 intragastric twice per day
Protocol: All animal experiments were conducted according to the Institutional Animal Care and Use Committee (IACUC). A total of 5 × 10^6 A549 cells was resuspended in 200 μL PBS and injected subcutaneously into each 4‐week‐old female nude mice. Once the tumor volume had reached 100–200 mm^3, six mice were randomized into each group. […] Then, 2.375 mL of 20% HP‐beta‐cyclodextrin was added to the above mixture to make a final concentration of 6 mg·mL^−1. […] Tumor volumes were determined from caliper measurements of tumor length (L) and width (W) according to the formula (L × W^2)/2. The relative tumor volume (RTV) was calculated using the following formula: RTV = (tumor volume on measured day)/(tumor volume on day 0).

IC50 (A549 cells): > 10000 nM
IC50 (H1975 cells): > 10000 nM
Compound: CC1(C)CCC(CN2CCN(c3ccc(C(=O)NS(=O)(=O)c4ccc(NCC5CCOCC5)c([N+](=O)[O-])c4)c(Oc4cnc5[nH]ccc5c4)c3)CC2)=C(c2ccc(Cl)cc2)C1 [ABT‐199]
Mcl-1 band intensity (Mcl-1): 1.30

IC50 (H460 cells): 1000 to 4000 nM
IC50 (PI3Ka): > 1000 nM
Decrease fold of phosphorylated EGFR, position 693 (EGFR [2]): 1.76 fold
Decrease fold of phosphorylated EGFR, position 991 (EGFR [2]): 2.03 fold
IC50 (p70S6K): > 1000 nM
IC50 (AKT1): > 1000 nM
IC50 (mTOR [3]): > 1000 nM
IC50 (PC-9 cells): 1000 to 4000 nM
IC50 (EGFR [4]): 61 nM
Cmax [6]: 304 ng/mL
IC50 (A549 cells): 1000 to 4000 nM
IC50 (H1975 cells): 1000 to 4000 nM
effect on mice bodyweight (A549 xenograft): without affecting the mice bodyweight
Compound: C=C(Br)C(=O)N1CCCC(n2nc(-c3ccc(Oc4ccccc4)cn3)c3c(N)ncnc32)C1 (centres unmarked) [Ibr‐7]
Decrease fold of phosphorylated EIF2S2, position 67 (EIF2S2): 1.99 fold
Decrease fold of phosphorylated EIF2S2, position 111 (EIF2S2): 1.58 fold
Decrease fold of phosphorylated RPS6, position 244 (RPS6): 2.17 fold
Decrease fold of phosphorylated mTOR, position 2481 (mTOR [5]): 2.23 fold
Decrease fold of phosphorylated LARP1, position 548 (LARP1): 1.90 fold
Decrease fold of phosphorylated LARP1, position 766 (LARP1): 4.70 fold
Decrease fold of phosphorylated LARP1, position 824 (LARP1): 2.34 fold
Decrease fold of phosphorylated RPS6KA1, position 359 (RPS6KA1): 1.59 fold
Decrease fold of phosphorylated RPS6KA1, position 363 (RPS6KA1): 1.54 fold
anti-tumor activity by relative tumor volume (RTV) (A549 xenograft): the same anti‐tumor activity as ibrutinib
viability at 4 µM [1]: 40.3%

IC50 (PI3Ka): > 1000 nM
IC50 (mTOR [3]): > 1000 nM
Compound: C=CC(=O)N1CCC[C@@H](n2nc(-c3ccc(Oc4ccccc4)cc3)c3c(N)ncnc32)C1 [ibrutinib, Ibrutinib, reference compound]
viability at 4 µM [1]: 88.1%

Continued, compound first:

Compound: C=CC(=O)Nc1cc(Nc2nccc(-c3cn(C)c4ccccc34)n2)c(OC)cc1N(C)CCN(C)C [AZD‐9291]
viability at 4 µM [1]: 57%

Compound: CC(C)C[C@@H](C=O)NC(=O)[C@H](CC(C)C)NC(=O)[C@H](CC(C)C)NC(=O)OCc1ccccc1 [MG‐132] (Cbz-Leu-Leu-Leu-aldehyde)
cytotoxicity on A549 cells (A549 cells; 10 μM, 24 h, CCK-8): no cytotoxicity effect
